Test results: patent US7037937B2, “Cytotoxic compounds” (Parker Hughes Institute, priority 2001, dated 2006)

Legend:
MOLT-3 Lymphoma = test: MTT assay, antiproliferative activity against MOLT-3; format: cell-based; details: Homo sapiens, 24–36 hours drug exposure, 1.0 to 250 μM
From the text: (§1) The following human cancer cell lines were used in the present study: human leukemic cell lines Molt-3 and NALM-6. These cell lines were obtained from American Type Culture Collection (Manassas, Va.) and maintained as continuous cell lines in Dulbecco's modified Eagles's medium supplemented with 10% fetal bovine serum and antibiotics.
(§2) The antiproliferative activity of the COBRA compounds was examined against a panel of 2 different human tumor cell lines using standard MTT (3-[4,5-dimethylthiazol-2-yl]-2,5-diphenyl tetrazolium bromide) assays (Narla, R. K., Liu, X. P., Klis, D. and Uckun, F. M., Clin. Cancer Res., 1998, 4, 2463), (Boehringer Mannheim Corp., Indianapolis, Ind.). Briefly, exponentially growing brain tumor cells were seeded into a 96-well plate at a density of 2.5×10^4 cells/well and incubated for 36 hours at 37° C. prior to drug exposure. On the day of treatment, culture medium was carefully aspirated from the wells and replaced with fresh medium containing the test compounds at concentrations ranging from 1.0 to 250 μM. Triplicate wells were used for each treatment. The cells were incubated with the various compounds for 24–36 hours at 37° C. in a humidified 5% CO2 atmosphere. To each well, 10 μl of MTT (0.5 mg/ml final concentration) was added and the plates were incubated at 37° C. for 4 hours to allow MTT to form formazan crystals by reacting with metabolically active cells. The formazan crystals were solubilized overnight at 37° C. in a solution containing 10% SDS in 0.01 M HCl. The absorbence of each well was measured in a microplate reader (Labsystems) at 540 nm and a reference wavelength of 690 nm. To translate the OD 540 values into the number of live cells in each well, the OD 540 values were compared to those on standard OD 540—versus—cell number curves generated for each cell line. The percent survival was calculated using the formula: survival=Live cell number[test]×100/Live cell number [control].
(§3) IC50 values were calculated by non-linear regression analysis using an Graphpad Prism software version 2.0 (Graphpad Software, Inc., San Diego, Calif.).

NALM-6 Leukemia = test: MTT assay, antiproliferative activity against NALM-6; format: cell-based; details: Homo sapiens, 24–36 hours drug exposure, 1.0 to 250 μM
From the text: as §1, §2, §3

| Compound | IC50 (MOLT-3 Lymphoma) [µM] | IC50 (NALM-6 Leukemia) [µM] |
| --- | --- | --- |
| CCCCCCCCCCCCC(O)c1nccs1 (centres unmarked) [AC-13] | 4 | > 250 |
| CCCCCCCCCCCCC(O)c1ccccn1 (centres unmarked) [AC-17] | 246 | 221 |
| CCCCCCCCCCCCC(O)c1ccc(Br)s1 (centres unmarked) [AC-11] | 2 | 4 |
| CCCCCCCCCCCCC(O)c1[nH]cnc1C (centres unmarked) [AC-15] | 9 | 25 |
| CCCCCCCCCCCCC(O)c1cccs1 (centres unmarked) [AC-10] | 125 | 204 |
| CCCCCCCCCCCCC(O)c1cccc(C)n1 (centres unmarked) [AC-16] | > 250 | 236 |
| CCCCCCCCCCCCC(O)c1ccco1 (centres unmarked) [AC-6] | > 250 | 229 |
| CCCCCCCCCCCCC(O)c1ccc(-c2ccccc2Cl)o1 (centres unmarked) [AC-7] | > 250 | > 250 |
| CCCCCCCCCCCCC(O)c1ccc(C=O)s1 (centres unmarked) [AC-12] | 33 | 6 |
| CCCCCCCCCCCCC(O)c1ncc[nH]1 (centres unmarked) [AC-14] | 58 | 3 |
